{"source": "BindingDB's records for doi:10.7270/Q2251GJ9", "about": "(The Scripps Research Institute Molecular Screening Center, 2007)", "data": [{"biological_target": "Sphingosine 1-phosphate receptor 1 (Homo sapiens, UniProt P21453)", "sequence (P21453 whole entry)": "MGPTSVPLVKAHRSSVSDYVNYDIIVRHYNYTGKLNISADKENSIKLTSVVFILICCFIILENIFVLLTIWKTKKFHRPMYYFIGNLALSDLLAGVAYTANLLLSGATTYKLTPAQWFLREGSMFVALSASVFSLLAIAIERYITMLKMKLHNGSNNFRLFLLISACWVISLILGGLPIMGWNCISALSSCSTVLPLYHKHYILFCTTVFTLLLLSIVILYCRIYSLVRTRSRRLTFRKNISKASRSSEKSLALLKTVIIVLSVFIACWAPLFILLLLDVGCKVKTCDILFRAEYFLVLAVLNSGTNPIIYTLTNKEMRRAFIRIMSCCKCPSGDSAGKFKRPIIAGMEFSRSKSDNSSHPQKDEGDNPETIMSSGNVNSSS", "experiment": "direct activation of human S1P1 – cell-based, agonist mode, 60K MLSMR set, dose response (AID 468)", "details": "not given", "units": {"EC50": "µM"}, "values": [{"molecule": "Cn1nc(CC(=O)Nc2ccc3c(c2)OCCO3)c2ccccc2c1=O", "note": "[MLS000047020]", "EC50": 5.94}, {"molecule": "COc1ccc(-n2c(O)cc(Sc3nnc[nH]3)c2O)c(OC)c1", "note": "[1-(2,4-dimethoxyphenyl)-3-(1H-1,2,4-triazol-5-ylthio)pyrrolidine-2,5-dione]", "EC50": 16.7}, {"molecule": "Cc1ccc(O)c(NC(=O)CCC2CCCCC2)c1", "note": "[3-cyclohexyl-N-(2-hydroxy-5-methyl-phenyl)propionamide]", "EC50": "> 95"}, {"molecule": "CC(=N)C(C#N)C(=O)CSc1nc2cc(Cl)ccc2s1", "note": "(stereo unspecified) [(E)-3-amino-2-[2-[(5-chloro-1,3-benzothiazol-2-yl)sulfanyl]acetyl]but-2-enenitrile]", "EC50": 15.6}, {"molecule": "Cc1cc(C(=O)CSc2nnc(-c3ccccc3)n2-c2ccccc2)c(C)n1-c1nnc[nH]1", "EC50": 5.27}, {"molecule": "CCC(NCCOc1ccc(Cl)cc1)=C1C(=O)N(C)C(=O)N(C)C1=O", "note": "[5-[1-[2-(4-chlorophenoxy)ethylamino]propylidene]-1,3-dimethyl-1,3-diazinane-2,4,6-trione]", "EC50": 5.04}, {"molecule": "Cc1ccc2[nH]c3c(NCc4ccco4)ncnc3c2c1", "note": "[MLS000040855]", "EC50": 9.9}, {"molecule": "O=C(Nc1nc(-c2ccc3c(c2)OCO3)cs1)c1ccncc1", "note": "[MLS000073104]", "EC50": 9.54}, {"molecule": "CCCc1ccc(Oc2c[nH]nc2-c2ccc(O)cc2O)cc1", "note": "[(4E)-3-hydroxy-4-[4-(4-propylphenoxy)-1,2-dihydropyrazol-3-ylidene]-1-cyclohexa-2,5-dienone]", "EC50": 15.5}, {"molecule": "CCCN(C(=O)c1cccs1)c1nnc(-c2ccncc2)s1", "note": "[MLS000074637]", "EC50": 3.38}, {"molecule": "CC(C)Oc1cc(O)c2c(=O)c(-c3ccc(O)cc3)coc2c1", "note": "[3-(4-hydroxyphenyl)-5-oxidanyl-7-propan-2-yloxy-chromen-4-one]", "EC50": "> 1"}, {"molecule": "CC(C)N1C(=O)CCC1C(=O)N1CCC(Cc2ccccc2)CC1", "note": "(stereo unspecified) [5-(4-benzylpiperidine-1-carbonyl)-1-isopropyl-2-pyrrolidone]", "EC50": "> 95"}, {"molecule": "O=C(CCC(=O)N(Cc1ccco1)C(C(=O)NC1CCCC1)c1ccncc1)Nc1cccnc1", "note": "(stereo unspecified) [MLS000033292]", "EC50": "> 95"}, {"molecule": "COc1ccc(C(c2c(O)ccc3ccccc23)N2CCOCC2)c(OC)c1", "note": "(stereo unspecified) [1-[(2,4-dimethoxyphenyl)-(4-morpholinyl)methyl]-2-naphthalenol]", "EC50": 4.94}, {"molecule": "COc1cccc(NC(=O)Nc2nnc(N3CCCCC3C)s2)c1", "note": "(stereo unspecified) [1-(3-methoxyphenyl)-3-[5-(2-methyl-1-piperidinyl)-1,3,4-thiadiazol-2-yl]urea]", "EC50": 8.72}, {"molecule": "COc1ccc(-c2noc(-c3ccccc3F)n2)cc1", "note": "[5-(2-fluorophenyl)-3-(4-methoxyphenyl)-1,2,4-oxadiazole]", "EC50": 7.38}, {"molecule": "Cc1ccc2oc(-c3ccc(NC(=O)c4cccnc4)cc3)nc2c1", "note": "[MLS000068975]", "EC50": 3.05}, {"molecule": "CCC(=O)Nc1ccc2c(c1)C(=O)N(C1CCCCC1)C2=O", "note": "[MLS000099936]", "EC50": "> 30"}, {"molecule": "Brc1ccc2ncnc(Nc3ccc(N4CCOCC4)cc3)c2c1", "note": "[(6-bromoquinazolin-4-yl)-(4-morpholinophenyl)amine]", "EC50": 7.6}]}, {"biological_target": "Sphingosine 1-phosphate receptor 1 (Homo sapiens, UniProt P21453)", "experiment": "direct activation of human S1P1 – cell-based, agonist mode, 60K MLSMR set, dose response (AID 468)", "details": "inactive by the depositor's call", "units": {"EC50": "µM"}, "values": [{"molecule": "CN(Cc1cccs1)c1ncnc2sccc12", "note": "[MLS000056228]", "EC50": 13}, {"molecule": "CN1CCN(C(=O)CSc2nc(-c3cccs3)cc(-c3cccs3)c2C#N)CC1", "note": "[2-[2-(4-methylpiperazin-1-yl)-2-oxidanylidene-ethyl]sulfanyl-4,6-dithiophen-2-yl-pyridine-3-carbonitrile]", "EC50": 10.1}, {"molecule": "Cc1cccc(-n2ncc3c(N(C)C4CCCCC4)ncnc32)c1", "note": "[MLS000100814]", "EC50": 95}, {"molecule": "CC1CC(C)(C)Nc2ccc(OC(=O)c3ccco3)cc21", "note": "(stereo unspecified) [(2,2,4-trimethyl-3,4-dihydro-1H-quinolin-6-yl) furan-2-carboxylate]", "EC50": 13.6}, {"molecule": "Clc1ccc(CSc2nnc(-c3ccncc3)o2)c(Cl)c1", "note": "[2-[(2,4-dichlorobenzyl)thio]-5-(4-pyridyl)-1,3,4-oxadiazole]", "EC50": 41.8}, {"molecule": "c1ccc(CSc2nnc(-c3cccs3)o2)cc1", "note": "[2-(benzylthio)-5-(2-thienyl)-1,3,4-oxadiazole]", "EC50": 20.9}, {"molecule": "CCN(CC)C(=O)Oc1ccc2c(=O)c(-c3ccccc3)coc2c1", "note": "[(4-oxidanylidene-3-phenyl-chromen-7-yl) N,N-diethylcarbamate]", "EC50": 37.2}]}]}
